Reference: patent US20260297042A1, “BIARYLAMIDE DERIVATIVES AND THEIR USE AS PKMYT1 INHIBITORS” (CANCER RESEARCH TECHNOLOGY LIMITED, priority 2023, published 2026)

Experiments:
[1] = biological target: T1, Human PKMYT1 (Homo sapiens, UniProt Q99640); test: PKMYT1 biochemical ADP-Glo enzymatic assay; conditions: ADP-Glo; 15 nM PKMYT1 kinase domain, 500 µM ATP, 60 minutes at 26° C.; banded
T1 construct: Human PKMYT1 75-362 was cloned as a TEV cleavable 6xHis fusion; 6xHis (TEV cleavable) (cleaved yes); made in house; host or cells: bacterial cells
T1 sequence (Q99640 75-362): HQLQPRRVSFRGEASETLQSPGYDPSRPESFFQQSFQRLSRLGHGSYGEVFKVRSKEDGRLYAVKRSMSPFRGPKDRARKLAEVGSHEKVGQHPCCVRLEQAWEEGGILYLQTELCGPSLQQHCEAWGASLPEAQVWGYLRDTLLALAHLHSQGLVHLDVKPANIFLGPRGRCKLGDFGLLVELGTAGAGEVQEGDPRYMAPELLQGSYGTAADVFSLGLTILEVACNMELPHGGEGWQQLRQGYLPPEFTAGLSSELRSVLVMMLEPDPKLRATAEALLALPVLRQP
Outline: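 Luminescent ADP-Glo Max read-out of ADP produced by 15 nM PKMYT1 (residues 75-362, bacterial, His-tag removed) from 500 µM ATP without peptide substrate. Reaction: 50 mM HEPES pH 7.5, 10 mM MgCl2, 1 mM EGTA, 0.01% Brij-35, 60 min, 26 °C. IC50 values fitted from 10-point curves.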

[2] = biological target: T2, WEE1 (Homo sapiens, UniProt P30291); test: Selectivity versus WEE1 assay (ADP-Glo enzymatic assay); type: biochemical; conditions: banded; for IC50: ADP-Glo, 15 nM WEE1, 60 minutes at 26° C.; for PKMYT1 vs. WEE1 selectivity: fold difference in selectivity for PKMYT1 over WEE1, ">N" = at least in this band but could be higher
T2 construct: purchased Thermo Fisher PR7373A
Outline: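 ADP-Glo luminescence read-out after a 60 min reaction at 26° C, initiated by 30 µM ATP, with 15 nM enzyme in HEPES pH 7.5/MgCl2/EGTA/Brij-35 buffer containing 1% DMSO. Replicate IC50 values had to agree within 3-fold and fits needed r2 >0.9.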

[3] = tested on: h-TERT-RPE1 TP53−/− parental cells; test: Nuclear count cell proliferation assay, parental (wild type) h-TERT-RPE1 TP53−/− cells; type: cell-based; conditions: hTERT-RPE1, h-TERT-RPE1 TP53−/− parental (Wt), around 6 population doublings, banded, read-out: RPE Wt GI50
Method: (§1) h-TERT-RPE1 TP53−/− and CCNE1 high expressing clones (clone cell lines 7 and 15) were treated with test compounds dissolved in DMSO at serially diluted concentrations alongside a DMSO only control for around 6 population doublings time. Cells were then fixed with 4% Paraformaldehyde and the cell nuclei were stained with DAPI (Sigma D9542). Images covering each well were acquired by an Opera Phenix® High-Content Screening System (PerkinElmer). Image analysis was performed using Harmony® high-content analysis software (PerkinElmer). Data analysis was performed using Microsoft Excel® and GI50 estimates generated with GraphPad Prism v9. Percent nuclear count was compared to vehicle control wells and used to measure inhibition of proliferation.

[4] = tested on: h-TERT-RPE1 TP53−/− CCNE1 high expressing clone cell line 7 (CL7); test: Nuclear count cell proliferation assay, CCNE1 high expressing clone cell line 7 (CL7) of h-TERT-RPE1 TP53−/−; type: cell-based; conditions: banded; for Selectivity Ratio Wt vs. CL7: GI50 ratio RPE Wt vs. CL7, >N = at least in this band; for GI50: hTERT-RPE1, h-TERT-RPE1 TP53−/− CCNE1 high clone CL7, nuclear count, around 6 population doublings, read-out: RPE CL7 GI50
Method: as §1

[5] = tested on: OVCAR3 cells; test: Cancer cell line proliferation assay, nuclear count, OVCAR3 (CCNE1-amplified); type: cell-based; conditions: banded; for Selectivity ratio KYSE30 GI50 vs. OVCAR3 GI50: >N = at least in this band; for GI50: Homo sapiens, OVCAR-3, CCNE1-amplified ovarian cancer, nuclear count
Method: as §1
(§2) Cancer cell lines with either normal (KYSE-30) or amplified CCNE1 expression (OVCAR3-ovarian cancer) were evaluated for their sensitivity to PKMYT1 inhibitors in a nuclear count assay as described above for h-TERT-RPE1 TP53−/− and a CCNE1 high expressing clones, taking into account the slower cell cycle division times of these lines.

[6] = tested on: KYSE-30 cells; test: Cancer cell line proliferation assay, nuclear count, KYSE-30 (normal CCNE1); type: cell-based; conditions: Homo sapiens, normal CCNE1 expression, banded, read-out: KYSE30 GI50
Method: as §1, §2

[7] = tested on: h-TERT-RPE1 TP53−/− CCNE1 high expressing clone cell line 15 (CL15); test: Nuclear count cell proliferation assay, CCNE1 high expressing clone cell line 15 (CL15) of h-TERT-RPE1 TP53−/−; type: cell-based; conditions: banded; for Selectivity Ratio Wt vs. CL15: GI50 ratio RPE Wt vs. CL15, >N = at least in this band; for GI50: h-TERT-RPE1 TP53−/− CCNE1 high clone CL15, nuclear count, around 6 population doublings, read-out: RPE CL15 GI50
Method: as §1

[8] = biological target: T3, Cellular PKMYT1 Biomarker CDK1 pT14 (Homo sapiens, UniProt Q99640); test: Inhibition of cellular PKMYT1 biomarker CDK1 pT14 in OVCAR 3 cells (immunoblot); type: cell-based; conditions: 20 hours incubation
T3 construct: read-out CDK1 phospho-T14 immunoblot
T3 sequence (Q99640 1-499): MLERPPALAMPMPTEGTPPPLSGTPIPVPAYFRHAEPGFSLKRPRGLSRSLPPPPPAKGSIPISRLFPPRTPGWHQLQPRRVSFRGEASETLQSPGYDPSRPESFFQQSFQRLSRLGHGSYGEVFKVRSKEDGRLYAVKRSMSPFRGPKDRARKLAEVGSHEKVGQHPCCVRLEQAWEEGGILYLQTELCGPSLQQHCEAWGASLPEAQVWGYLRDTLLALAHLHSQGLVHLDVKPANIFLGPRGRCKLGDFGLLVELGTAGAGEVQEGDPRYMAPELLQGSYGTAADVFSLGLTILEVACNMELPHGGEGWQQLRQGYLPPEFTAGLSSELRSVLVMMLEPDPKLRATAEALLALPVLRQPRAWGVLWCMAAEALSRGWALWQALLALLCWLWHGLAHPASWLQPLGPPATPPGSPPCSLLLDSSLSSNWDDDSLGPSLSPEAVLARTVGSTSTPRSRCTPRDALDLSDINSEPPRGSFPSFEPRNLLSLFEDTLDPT
Outline: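 Confluent OVCAR 3 cells treated with a compound concentration range for 20 h at 37 °C. Lysates analysed by automated capillary immunoblot for CDK1 phospho-T14, with vinculin, fluorescence detection; IC50 by regression.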

[9] = tested on: OVCAR 3 cells; test: Cancer cell line proliferation assay, ATP-based cell viability (Cell Titre Glow), OVCAR 3 (CCNE1-amplified); conditions: KYSE30 (normal CCNE1) GI50 vs. OVCAR 3 (CCNE1-amplified) GI50
Outline: (§3)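 GI50 values, the concentrations halving cell growth, were derived from ATP-based luminescence (Cell Titre Glo) after PKMYT1 inhibitor exposure. Cells tested were OVCAR 3, an ovarian line with amplified CCNE1, and KYSE-30, which has normal CCNE1.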

[10] = tested on: KYSE-30 cells; test: Cancer cell line proliferation assay, ATP-based cell viability (Cell Titre Glow), KYSE-30 (normal CCNE1); conditions: Homo sapiens, KYSE-30 cells (normal CCNE1), concentration that achieves 50% cell growth proliferation inhibition, read-out: KYSE30 Gl50
Outline: as §3

[11] = tested on: solid tumours; conditions: clinicaltrials.gov; cited from earlier work
[12] = tested on: breast and ovarian cancers overexpressing CCNE1; conditions: alone or in combination with Gemcitabine; Gallo et al., 2022; cited from earlier work
[13] = tested on: pancreatic PDX model with increased expression of CCNE1; conditions: alone or in combination with Gemcitabine; Gallo et al., 2022; cited from earlier work

T2 sequence (P30291 whole entry): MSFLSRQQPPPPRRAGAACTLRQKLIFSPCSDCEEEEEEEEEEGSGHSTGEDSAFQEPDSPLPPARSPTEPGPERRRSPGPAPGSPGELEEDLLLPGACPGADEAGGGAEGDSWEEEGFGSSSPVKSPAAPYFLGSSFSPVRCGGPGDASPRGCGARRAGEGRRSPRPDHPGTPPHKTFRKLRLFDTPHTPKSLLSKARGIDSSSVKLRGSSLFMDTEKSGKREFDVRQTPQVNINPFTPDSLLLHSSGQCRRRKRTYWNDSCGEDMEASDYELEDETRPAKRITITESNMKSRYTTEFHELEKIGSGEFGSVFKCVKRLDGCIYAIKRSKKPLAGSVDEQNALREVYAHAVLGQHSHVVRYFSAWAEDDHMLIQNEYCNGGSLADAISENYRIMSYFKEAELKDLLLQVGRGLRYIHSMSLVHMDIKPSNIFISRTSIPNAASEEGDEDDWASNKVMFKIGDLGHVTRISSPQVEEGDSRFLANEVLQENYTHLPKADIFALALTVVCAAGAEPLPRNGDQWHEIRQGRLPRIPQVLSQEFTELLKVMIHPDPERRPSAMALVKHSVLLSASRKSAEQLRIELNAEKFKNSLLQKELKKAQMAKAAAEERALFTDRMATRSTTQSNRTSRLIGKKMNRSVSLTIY

Row | SMILES | IC50 [1] [nM] | IC50 [2] [nM] | PKMYT1 vs. WEE1 selectivity [2] | GI50 [3] [nM] | Selectivity Ratio Wt vs. CL7 [4] | GI50 [4] [nM] | Selectivity ratio KYSE30 GI50 vs. OVCAR3 GI50 [5] | GI50 [5] [nM] | GI50 [6] [nM] | Selectivity Ratio Wt vs. CL15 [7] | GI50 [7] [nM] | IC50 [8] [nM] | Selectivity ratio KYSE30 Gl50 vs. OVCAR3 Gl50 [9] | GI50 [10] [nM] | toxicity in clinical trials [11] | efficacy in vivo [12] | efficacy in vivo [13]
1 | CCN(CC)C(=O)Cn1ccc(Nc2ncc(C(=O)Nc3c(C)ccc(O)c3C)s2)n1 [BAA-173, 2-[[1-[2-(diethylamino)-2-oxo-ethyl]pyrazol-3-yl]amino]-N-(3-hydroxy-2,6-dimethyl-phenyl)thiazole-5-carboxamide] | < 50 | > 11000 | Y (1000-5000 fold) | 500 to 3000 | X (3-<10 fold) | < 500 | >X (3-<10 fold) | 3000 to 10000 | > 10000 |  |  |  |  |  |  |  | 
2 | Cc1ccc(O)c(C)c1NC(=O)c1cnc(Nc2ccn(CC(=O)N3CCN(C(=O)OC(C)(C)C)C(C)(C)C3)n2)s1 [BAA-179, tert-butyl 4-[2-[3-[[5-[(3-hydroxy-2,6-dimethyl-phenyl)carbamoyl]thiazol-2-yl]amino]pyrazol-1-yl]acetyl]-2,2-dimethyl-piperazine-1-carboxylate] | < 50 | 1000 to 11000 | X (100-<1000 fold) | 3000 to 10000 |  |  | Z (>30 fold) | < 500 | > 10000 | Y (10-30 fold) | < 500 |  |  |  |  |  | 
3 | Cc1ccc(O)c(C)c1NC(=O)c1cnc(Nc2cc(C(F)(F)F)n(C)n2)s1 [BAA-047] | 50 to 1000 | > 11000 | >X (100-<1000 fold) |  |  |  | X (3-<10 fold) | 500 to 3000 | 3000 to 10000 |  |  | 100 to 1000 |  |  |  |  | 
4 | Cc1cn(CC(=O)N2CCCC2)nc1Nc1ncc(C(=O)Nc2c(C)ccc(O)c2C)s1 [BAA-208, N-(3-hydroxy-2,6-dimethyl-phenyl)-2-[[4-methyl-1-(2-oxo-2-pyrrolidin-1-yl-ethyl)pyrazol-3-yl]amino]thiazole-5-carboxamide] | < 50 | 1000 to 11000 | X (100-<1000 fold) |  |  |  | Z (>30 fold) | < 500 | > 10000 |  |  |  | Y (>20 fold) | > 5000 |  |  | 
5 | C=CCn1c(=O)c2cnc(Nc3ccc(N4CCN(C)CC4)cc3)nc2n1-c1cccc(C(C)(C)O)n1 [adavosertib] |  |  |  |  |  |  |  |  |  |  |  |  |  |  | presented significant toxicity |  | 
6 | Cc1ccc(O)c(C)c1NC(=O)c1cnc(Nc2ccn(CC(=O)N3CC(F)(F)C(F)(F)C3)n2)s1 [BAA-181, N-(3-hydroxy-2,6-dimethyl-phenyl)-2-[[1-[2-oxo-2-(3,3,4,4-tetrafluoropyrrolidin-1-yl)ethyl]pyrazol-3-yl]amino]thiazole-5-carboxamide] | < 50 | > 11000 | Y (1000-5000 fold) | 500 to 3000 | X (3-<10 fold) | < 500 | >X (3-<10 fold) | 3000 to 10000 | > 10000 | Y (10-30 fold) | < 500 |  |  |  |  |  | 
7 | Cc1cc2c(C(N)=O)c(N)n(-c3c(C)ccc(O)c3C)c2nc1C [RP-6306] |  |  |  |  |  |  |  |  |  |  |  |  |  |  |  | has shown efficacy in vivo | has shown efficacy in vivo
8 | Cc1ccc(O)c(C)c1NC(=O)c1cnc(Nc2ccn(CC(=O)N3CCCC3)n2)s1 [BAA-148, N-(3-hydroxy-2,6-dimethyl-phenyl)-2-[[1-(2-oxo-2-pyrrolidin-1-yl-ethyl)pyrazol-3-yl]amino]thiazole-5-carboxamide] | < 50 | > 11000 | Y (1000-5000 fold) | 500 to 3000 |  |  | X (3-<10 fold) | 3000 to 10000 | > 10000 | X (3-<10 fold) | 500 to 3000 |  |  |  |  |  | 
